From US7202261B2, “Calcilytic compounds” (NPS Pharmaceuticals, Inc., priority 1996, dated 2007) come the findings set out here.

The target of the experiment is T1, human calcium receptor (Homo sapiens, UniProt P41180).
T1 construct: expressed in transfected cells
T1 sequence (P41180 20-1078): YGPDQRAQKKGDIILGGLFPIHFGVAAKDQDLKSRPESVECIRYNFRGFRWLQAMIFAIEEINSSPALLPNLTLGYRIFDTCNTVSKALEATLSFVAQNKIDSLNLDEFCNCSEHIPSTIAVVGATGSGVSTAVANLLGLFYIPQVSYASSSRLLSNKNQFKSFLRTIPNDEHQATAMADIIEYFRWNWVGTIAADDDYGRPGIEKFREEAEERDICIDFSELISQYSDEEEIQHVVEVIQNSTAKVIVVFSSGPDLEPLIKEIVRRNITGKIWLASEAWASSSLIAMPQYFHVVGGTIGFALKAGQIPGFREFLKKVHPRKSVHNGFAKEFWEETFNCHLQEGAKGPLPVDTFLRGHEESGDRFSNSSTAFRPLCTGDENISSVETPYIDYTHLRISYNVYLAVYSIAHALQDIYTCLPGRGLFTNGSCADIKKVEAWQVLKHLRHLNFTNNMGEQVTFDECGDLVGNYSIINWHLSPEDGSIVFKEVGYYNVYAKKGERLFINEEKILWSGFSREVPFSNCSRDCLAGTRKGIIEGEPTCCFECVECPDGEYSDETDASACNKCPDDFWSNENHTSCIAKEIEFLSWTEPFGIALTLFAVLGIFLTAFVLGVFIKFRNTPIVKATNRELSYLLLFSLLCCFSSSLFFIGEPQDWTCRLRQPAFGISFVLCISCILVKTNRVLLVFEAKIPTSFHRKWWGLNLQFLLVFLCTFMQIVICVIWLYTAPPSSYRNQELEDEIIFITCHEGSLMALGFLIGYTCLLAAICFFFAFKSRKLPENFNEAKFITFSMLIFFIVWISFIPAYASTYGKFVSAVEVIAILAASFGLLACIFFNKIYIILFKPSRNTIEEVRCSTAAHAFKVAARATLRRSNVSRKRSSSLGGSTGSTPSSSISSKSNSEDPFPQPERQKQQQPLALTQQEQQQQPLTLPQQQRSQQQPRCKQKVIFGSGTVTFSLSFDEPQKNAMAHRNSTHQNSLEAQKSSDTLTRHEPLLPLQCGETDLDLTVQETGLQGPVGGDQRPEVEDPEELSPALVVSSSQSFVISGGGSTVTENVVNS
Description: Calcium Receptor Inhibitor Assay. It is filed as cell-based. Conditions: HEK 293 4.0–7 cells stably expressing the human calcium receptor; fluo-3; read-out: IC50 for blocking increases of intracellular Ca2+ elicited by extracellular Ca2+. The essentials:
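Intracellular Ca^2+ measured with fluo-3 at 37° C in stirred cell suspension. Buffer held 1 mM CaCl2 and 1 mg/mL D-glucose. Compound or vehicle added 90 seconds before extracellular Ca^2+ was raised from 1 to 2 mM, and calcilytic activity scored as concentration-dependent block of the intracellular Ca^2+ rise.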

Each structure is given as a SMILES string. Counter-ions that a name gives are not always drawn.

`COc1ccc(CC(C)(C)NC[C@@H](O)COc2ccccc2)cc1` (single isomer, unassigned) [Compound 32, (R) or (S)—N-(2-Hydroxy-3-phenoxypropyl)-1,1-dimethyl-2-(4-methoxyphenyl)ethylamine Hydrochloride]: the IC50 (in general, the concentration that inhibits the measured activity by half) was below 10 µM.

Turning to `COc1ccc(CC(C)(C)NCC(O)COc2cccc(OC)c2)cc1` (centres unmarked) [Compound 38, N-[2-Hydroxy-3-(3-methoxyphenoxy)propyl]-1,1-dimethyl-2-(4-methoxyphenyl)ethylamine Hydrochloride], the IC50 is below 1 µM.
